Source: patent US20230365616A1, “CHOLESTANE DERIVATIVES, PREPARATIONS CONTAINING THESE DERIVATIVES AND USE THEREOF” (UNIVERZITA PALACKEHO V OLOMOUCI, priority 2020, published 2023)

How the values were obtained:
[1] = test system: neuron-like SH-SY5Y cells; assay: Glutamate-induced oxidative stress, superoxide radical formation by dihydroethidium staining; assay type: cell-based, human; settings: 4 hour co-treatment with 160 mM Glu, percentages of 160 mM Glu control, mean of three independent experiments
Experimental: Similarly as shown in previous assay, cells grew on 96 multiwell plates at density 20000 cells per well underwent differentiation and treatment procedure for glutamate model. After 4 hour co-treatment with glutamate superoxide radical's formation as marker of oxidative stress was quantified by dihydroethidium according to Kim et al. 2017, J. Med. Food, 20, 140-151 with modifications. Briefly, neuron-like SH-SYSY cells were centrifuged at 500 g for 5 minutes and 30 seconds, then media were replaced by 10 μM DHE PBS solution and kept at room temperature for 30 minutes. After 30 minutes, DHE was read at 500 nm/580 nm (excitation/emission) by Infinite M200 Pro (Tecan) microplate reader. DHE is cell permeable dye which is selective toward superoxide radical detection. Overall oxidative stress achieved by 160 mM Glu was consider as 100% so that the reduction in oxidative stress (OS reducing effect) was observed. As shown in Table 6 and FIG. 2, 160 mM Glu induced 2.6 fold increase in superoxide radical's formation.

[2] = test system: human neuron-like SH-SY5Y cells; assay: Neuroprotective effect on glutamate-induced oxidative damage, cell death by propidium iodide staining; assay type: cell-based; settings: for Neuroprotective effect (% of control): co-treatment with 160 mM Glu for 24 h, difference between 160 mM Glu and co-treatment group means; for Neuroprotective effect compared with positive controls (R-LA, DFO): 160 mM Glu, 24 h
Experimental: Similarly, to the previous test the assay was performed in 96-well microplates with 20000 cells per well. Day after the seeding of cells, SH-SYSY underwent all-trans retinoic acid (ATRA)-differentiation for 48 h (ATRA 10 μM). […] […] After 24 h the cell death was quantified by propidium iodide staining according to literature (Stone et al. BMC Cell Biol. 2003, 4, 1) with modifications. In general, PI staining is associated with damaged cell membrane or presence of dying cells (Stone et al. BMC Cell Biol. 2003, 4, 1). Due to the loss of adherence, damaged or death cells were stained by PI solution directly in media at 1.5 μM final concentration and incubated at room temperature for 15-25 minutes at room temperature. PI stained cells were quantified at 535/617 nm (excitation/emission) by Infinite M200 Pro (Tecan) microplate reader. Cell death generated by 160 mM Glu was consider as 100% of cell death so that reduction in cell death (neuroprotective effect) was observed.

[3] = test system: SH-SY5Y human neuroblastoma cell line (neuron-like phenotype); assay: Calcein AM viability test on ATRA-differentiated neuron-like SH-SY5Y cells; assay type: cell-based; settings: 24 hours of treatment, mean of two independent experiments
Experimental: (§1) The SH-SY5Y human neuroblastoma cell line obtained purchased from ECACC (The European Collection of Authenticated Cell Cultures) was cultivated in Dulbecco's modified Eagle's Medium and Ham's F12 Nutrient Mixture (DMEM:F-12, 1:1), supplemented with 10% fetal bovine serum (FBS) and 1% penicillin and streptomycin at 37° C. in a humidified atmosphere 5% CO2, 95% air in passage limit up to ECACC+20. The assay was performed in 96-well microplate with 7000 SH-SY5Y cells per well. Next day, SH-SY5Y underwent all-trans retinoic acid (ATRA)-differentiation for 48 h (ATRA 10 μM). After 48 h, old DMEM/F12 media was removed by fresh media containing tested compounds at 0.1, 1 and 10 μM concentrations for 24 h. The tested compounds were dissolved in DMSO were added into the medium. The maximum concentration of DMSO in media was kept below 0.1% (v/v). The cell viability was measured by Calcein AM (1 mg/ml ThermoFisher) viability assay. Solution of Calcein AM in PBS (0.75 μM) was pipetted to cells and incubated for 50 minutes. After that the fluorescence was measured at 488/517 nm (excitation/emission) using microplate reader Infinite M200 (TECAN). Calcein AM assay is based on the dye-intracellular-esterase cleavage of non-fluorescent dye (Calcein AM) by living cells to fluorescent dye (Calcein), while dyeing cells that lose such ability. The values in Table 4 show % of viability, relative to control of all tested compounds. The control (medium with DMSO, <0.1% (v/v)) was postulated as 100% viability (see the first line of the table).

[4] = as above; assay type: cell-based; settings: human, ATRA-differentiated neuron-like SH-SY5Y neuroblastoma cells, 24 hours of treatment, mean of two independent experiments, read-out: Viability (% of DMSO control)
[5] = as above; assay type: cell-based, human; settings: human, ATRA-differentiated neuron-like SH-SY5Y neuroblastoma cells; 1 μM, 24 hours of treatment, mean of two independent experiments; read-out: Viability (% of DMSO control)
Experimental: as §1

| SMILES | Superoxide radical formation (% of 160 mM glutamate control) ([1]; 1 μM) | Superoxide radical formation (% of 160 mM glutamate control) ([1]; 10 μM) | Neuroprotective effect (% of control) ([2]; 1 μM) | Neuroprotective effect compared with positive controls (R-LA, DFO) ([2]; 10 μM) | Neuroprotective effect (% of control) ([2]; 10 μM) | Viability (% of DMSO control) ([3]; 0.1 μM) | Viability (% of DMSO control) ([3]; 1 μM) | Viability (% of DMSO control) ([3]; 10 μM) | Superoxide radical formation (% of 160 mM glutamate control) ([1]; 5 μM) | Superoxide radical formation (% of 160 mM glutamate control) ([1]; 50 μM) | Neuroprotective effect (% of control) ([2]; 50 μM) | viability at 24 h, 5 µM ([4]; 5 μM) | viability at 24 h, 50 µM ([4]; 50 μM) | Superoxide radical formation (% of 160 mM glutamate control) ([1]; 100 μM) | Neuroprotective effect (% of control) ([2]; 100 μM) | viability at 24 h, 1 µM [5] |
| --- | --- | --- | --- | --- | --- | --- | --- | --- | --- | --- | --- | --- | --- | --- | --- | --- |
| CC[C@@H](C)[C@H]1CC[C@H]2[C@@H]3CC(=O)[C@H]4C[C@H](O)[C@H](O)C[C@]4(C)[C@H]3CC[C@]12C [Compound 6] | 85.36% | 80.19% | 15.00 % of control | double neuroprotective effect than R-LA | 33.70 % of control | 101.30 % of DMSO control | 104.80 % of DMSO control | 122.10 % of DMSO control | – | – | – | – | – | – | – | – |
| CCCCC[C@@H](C)[C@H]1CC[C@H]2[C@@H]3CC(=O)[C@H]4C[C@H](O)[C@H](O)C[C@]4(C)[C@H]3CC[C@]12C [Compound 57] | 93.34% | 83.99% | 15.99 % of control | – | 24.88 % of control | 105.90 % of DMSO control | 108.90 % of DMSO control | 117.10 % of DMSO control | – | – | – | – | – | – | – | – |
| CC(C)CCC[C@@H](C)[C@H]1CC[C@H]2[C@@H]3CC(=O)[C@H]4C[C@H](O)[C@H](O)C[C@]4(C)[C@H]3CC[C@]12C [Compound 111] | 89.17% | 80.21% | – | – | 26.52 % of control | 106.90 % of DMSO control | 107.80 % of DMSO control | 109.90 % of DMSO control | – | – | – | – | – | – | – | – |
| O=C(O)CCCC[C@@H]1CCSS1 [R-LA, R-lipoic acid, reference compound] | – | – | – | – | – | – | – | – | 86.72% | 83.91% | 13.49 % of control | – | – | – | – | – |
| CCC[C@@H](C)[C@H]1CC[C@H]2[C@@H]3CC(=O)[C@H]4C[C@H](O)[C@H](O)C[C@]4(C)[C@H]3CC[C@]12C [Compound 15] | 98.27% | 85.61% | – | double neuroprotective effect than R-LA | 30.08 % of control | 98.20 % of DMSO control | 106.40 % of DMSO control | 120.60 % of DMSO control | – | – | – | – | – | – | – | – |
| CC(=O)N(O)CCCCCNC(=O)CCC(=O)N(O)CCCCCNC(=O)CCC(=O)N(O)CCCCCN [DFO, deferoxamine, reference compound] | – | 87.06% | – | – | 19.94 % of control | – | – | – | – | – | – | 106% | 110% | 92.61% | 23.55 % of control | 106% |
| CCCC[C@@H](C)[C@H]1CC[C@H]2[C@@H]3CC(=O)[C@H]4C[C@H](O)[C@H](O)C[C@]4(C)[C@H]3CC[C@]12C [Compound 30] | 84.54% | 81.08% | – | – | 23.17 % of control | 99.41 % of DMSO control | 102.30 % of DMSO control | 104.70 % of DMSO control | – | – | – | – | – | – | – | – |
